Measured values from US20200188468A1, “A COATED COSTUS COMPOSITION ENRICHED WITH TRITERPENOIDS AND A METHOD OF PREPARATION OF THE SAME” (priority 2017, published 2020).

Key:
Type in all cases: in vivo, Wistar rats
[1] = test system: streptozotocin-induced diabetic rats; test: Fasting blood glucose level, 30 days treatment; details: STZ diabetic rats, glibenclamide 1 mg/kg, Samples 1-3 100 mg/kg, Product-1 and -2 50 mg/kg, Product-3 10 mg/kg orally
Procedure: (§1) Adult Wistar rats weighing 200-250 gm were selected at random; the animals were kept in standard animal house conditions at 24±2° C., 65% relative humidity and 12 h light/dark cycle. After five days of acclimatisation, diabetes was induced by injecting streptozotocin 35 mg/kg dissolved in 0.1M citrate buffer of pH 4.5, intraperitoneally, as standardised in our laboratory. Five days after induction of diabetes (day 1 of the study), animals fasted for 12 hours and the fasting blood glucose level (FBG) was estimated for diagnosing diabetic rats. Animals having FBG more than 250 mg/dl were included in the study.
(§2) Six normal healthy rats were allocated to Group I; streptozotocin-induced diabetic rats were randomly allocated to Groups 2 to 9 with 6 rats in each group. The animals were treated for 30 days as per below experimental design:
(§3) Group 3—Positive control—diabetic animals administered with glibenclamide at 1 mg/kg Body wt orally for 30 days.
(§4) Group 4—diabetic animals administered with Sample 1 at 100 mg/kg Body wt orally for 30 days.
(§5) Group 5—diabetic animals administered with Sample 2 at 100 mg/kg Body wt orally for 30 days.
(§6) Group 6—diabetic animals administered with of Sample 3 at 100 mg/kg Body wt orally for 30 days.
(§7) Group 7—diabetic animals administered with Product-1 at 50 mg/kg Body wt orally for 30 days.
(§8) Group 8—diabetic animals administered with Product-2 at 50 mg/kg Body wt orally for 30 days.
(§9) Group 9—diabetic animals administered with of Product-3 at 10 mg/kg Body wt orally for 30 days.
FBG was measured on Day 0, Day 15 and Day 30. OGTT was also performed on Day 0, Day 15 and Day 30.

[2] = test system: high-fat diet-induced insulin resistance rats; test: High fat diet-induced insulin resistance model (Type 2 diabetes); details: HFD rats
Procedure: The study was designed to evaluate the effect of different fractions and compositions of costus on high fat-induced resistance Type-2 diabetic model (HFD). Adult Wistar rats were allowed free access to food and water. They were housed under identical standard conditions. The animals were kept for acclimatisation for a period of 7 days. After 7 days, the animals were randomly divided into six groups of six rats each. The normal control group was treated with normal regular diet and the rest of the animals were fed with high-fat diet for 6 weeks. After 6 weeks, Sample-1, Sample-3, and Product-2 were administered at a specific dosage as per their groups for 6 consecutive weeks. The experimental design was as follows:
as §3
Group 4—diabetic animals administered with Sample-1 at 300 mg/kg Body wt orally for 30 days.
Group 5—diabetic animals administered with Sample-3 at 100 mg/kg Body wt orally for 30 days.
Group 6—diabetic animals administered with of Product-2 at 50 mg/kg Body wt orally for 30 days.
Body weights were determined weekly. At the end of experimental period, blood samples were collected to determine plasma glucose, insulin, glycosylated haemoglobin, triglycerides, and total cholesterol, LDL, HDL and VLDL.

[3] = test system: streptozotocin-induced diabetic rats; test: Postprandial glucose levels (OGTT) of costus in various dosages; details: STZ diabetic rats, 1 mg/kg oral
Procedure: Adult Wistar rats weighing 200-250 gm were selected at random; the animals were kept in standard animal house conditions at 24±2° C., 65% relative humidity and 12 h light/dark cycle. The animals were acclimatized for a period of five days and fed with standard pellet diet and water. Six healthy rats were separated at random from the lot and diabetes was induced in rest by a single intra-peritoneal injection of streptozotocin (STZ) at 35 mg/kg. Fasting blood sugar (FBS) was measured after seven days of STZ injection and rats having FBS more than 200 mg/dl were considered as diabetic. The diabetic rats were separated out and randomly divided into 11 groups having six rats in each. Six normal healthy rats were allocated to Group I; STZ induced diabetic rats were randomly allocated to Groups 2 to 12.
Oral glucose tolerance test (OGTT) was performed following a glucose challenge of 2 g/kg by oral gavages. It was to test the ability of body cells to absorb glucose after you ingest a given amount of sugar. Blood glucose was recorded at 30 min, 60 min, 120 min and 180 min, after the glucose challenge on day of the study.
Just after glucose challenge test a specific Doses of Sample-1 (from example 1) and Product-2 (from example 4) were administered through oral gavages. The dosages for Sample-1 and Product-1 were in a range of 25 mg/kg Body wt to 300 mg/kg Body wt. In one of the groups animals were administered with glibenclamide.
Group 2—Positive control—diabetic animals administered with glibenclamide at 1 mg/kg Body wt orally for 30 days.
Group 3—diabetic animals administered with Sample-2 at 25 mg/kg Body wt orally for 30 days.
Group 4—diabetic animals administered with Sample-2 at 50 mg/kg Body wt orally for 30 days.
Group 5—diabetic animals administered with Sample-2 at 75 mg/kg Body wt orally for 30 days.
Group 6—diabetic animals administered with Sample-2 at 100 mg/kg Body wt orally for 30 days.
Group 7—diabetic animals administered with Sample-2 at 150 mg/kg Body wt orally for 30 days.
Group 8—diabetic animals administered with Sample-2 at 300 mg/kg Body wt orally for 30 days.
Group 9—diabetic animals administered with Product-2 at 25 mg/kg Body wt orally for 30 days.
Group 10—diabetic animals administered with Product-2 at 50 mg/kg Body wt orally for 30 days.
Group 11—diabetic animals administered with Product-2 at 75 mg/kg Body wt orally for 30 days.
Group 12—diabetic animals administered with Product-2 at 100 mg/kg Body wt orally for 30 days.
Group 13—diabetic animals administered with Product-2 at 150 mg/kg Body wt orally for 30 days.

[4] = test system: streptozotocin-induced diabetic rats; test: Oral glucose tolerance test on day 1, 15 and 30 of 30 days treatment; details: STZ diabetic rats, doses as in E42
Procedure: as §1, §2, §3, §4, §5, §6, §7, §8, §9
Oral glucose tolerance test (OGTT) was performed following a glucose challenge of 2 g/kg by oral gavages. It was to test the ability of body cells to absorb glucose after you ingest a given amount of sugar. Blood glucose was recorded at 30 min (PPG1), 60 min (PPG2), 120 min (PPG3) and 180 min (PPG4), after the glucose challenge on day 1, day 15 and day 30 of the study.

[5] = test system: streptozotocin and HFD diabetic rats; test: Streptozotocin plus high fat diet Type 2 diabetes model, coated versus uncoated costus extract; details: STZ + HFD diabetic rats
Procedure: Wistar rats were selected at random; the animals were kept in standard animal house conditions at 24±2° C., 65% relative humidity and 12 h light/dark cycle. The animals were acclimatized for a period of five days and fed with standard pellet diet and water. Fasted male Wistar rats were intraperitoneally injected with freshly prepared solution of streptozotocin (STZ) (35 mg/kg). After injection, all the animals were continued on the standard rodent diet for 2 weeks. At the end of 2 weeks after STZ injection; 1 ml of blood was collected from retro-orbital plexus of each rat. Blood was allowed to clot for 30 min the serum was separated by centrifuging at 1008 G-force for 20 min at 8.0° C. in a cold centrifuge. The serum separated from the blood of each animal was used for the estimation of glucose. All the samples were analysed calorimetrically in Autoanalyzer (MERCK MICROLAB 300) using commercial kits. The development of hyperglycaemia in these rats was thus confirmed by measuring fasting blood glucose levels. The rats with the fasting PGL of ≥200 mg dl−1 were considered diabetic and selected for further dietary manipulation. 350 g of standard rodent diet was powdered and mixed with 60 g of lard, 45 g of yolk powder, and 45 g of plantation white sugar (HFD diet). The above mixture is pelleted and used to feed the rats for 2 weeks to induce diabetic dyslipidaemia. Required amount of the diet was freshly prepared on a daily basis. At the end of 2nd week the blood was collected from each animal for determination of glucose levels as described above.
After the second fasting blood glucose estimation, at the end of 4th week, the rats were divided into 6 groups of 6 rats each: Group-1 consisted of age-matched non-diabetic normal rats that neither received streptozotocin nor the high-fat diet and served as normal; Group 2 consisted of diabetic rats without any drug treatment and served as untreated control; Group 3 consisted of diabetic rats and received standard drug, Glibenclamide. Group 4 consisted of diabetic rats and received excipients. Group 5 consisted of diabetic rats and sample 2. Group 6 consisted of diabetic rats and product 2. The high fat diet was continued for the rest of the study duration.
Group 3—Diabetic, HFD administered group treated with Glibenclamide at 2.5 mg/Kg p.o. body weight.
Group 5—Diabetic, HFD administered group treated with sample 2 for at 40 mg/kg twice daily.
Group 6—Diabetic, HFD administered group treated with product-2 at 100 mg/kg twice daily.
Body weights were determined biweekly. At the end of experimental period, blood samples were collected to determine plasma glucose, insulin, leptin, glycosylated hemoglobin, triglycerides, total cholesterol, LDL, HDL and VLDL.

[6] = end of experimental period, doses as in E59

COc1ccc(Cl)cc1C(=O)NCCc1ccc(S(=O)(=O)NC(=O)NC2CCCCC2)cc1 [glibenclamide]
Fasting blood glucose level 0th day ([1]; day 0): 388 mg/dL
Fasting blood glucose level 15th day ([1]; day 15): 266 mg/dL
Fasting blood glucose level 30th day ([1]; day 30): 142 mg/dL
Blood glucose [2, 6]: 142 mg/dL
Glycosylated Hb [2, 6]: 0.5 % of total Hb
HDL [2, 6]: 27 mg/dL
LDL [2, 6]: 55 mg/dL
TC [2, 6]: 91.4 mg/dL
TG [2, 6]: 47 mg/dL
VLDL [2, 6]: 9.4 mg/dL
Insulin ([2]; serum, end of experimental period, doses as in E59): 1.7 ng/mL
Body weight, week 0 ([2]; week 0, glibenclamide 1 mg/kg, Sample-1 300 mg/kg, Sample-3 100 mg/kg, Product-2 50 mg/kg orally): 216 grams
Average Body weight at weekly interval, week 2 ([2]; week 2, doses as in E59): 259 grams
Average Body weight at weekly interval, week 3 ([2]; week 3, doses as in E59): 274 grams
Average Body weight at weekly interval, week 4 ([2]; week 4, doses as in E59): 280 grams
Average Body weight at weekly interval, week 5 ([2]; week 5, doses as in E59): 270 grams
Average Body weight at weekly interval, week 6 ([2]; week 6, doses as in E59): 248 grams
Postprandial glucose level 30 min ([3]; 30 min after 2 g/kg glucose): 294 mg/dL
Postprandial glucose level 60 min ([3]; 60 min after 2 g/kg glucose): 170 mg/dL
Postprandial glucose level 120 min ([3]; 120 min after 2 g/kg glucose): 127 mg/dL
Postprandial glucose level 180 min ([3]; 180 min after 2 g/kg glucose): 101 mg/dL
PPG 30 min, Day 1 ([4]; Day 1, 30 min after 2 g/kg glucose): 294 mg/dL
PPG 60 min, Day 1 ([4]; Day 1, 60 min after 2 g/kg glucose): 232 mg/dL
PPG 120 min, Day 1 ([4]; Day 1, 120 min after 2 g/kg glucose): 226 mg/dL
PPG 180 min, Day 1 ([4]; Day 1, 180 min after 2 g/kg glucose): 158 mg/dL
PPG 30 min, Day 15 ([4]; Day 15, 30 min after 2 g/kg glucose): 285 mg/dL
PPG 60 min, Day 15 ([4]; Day 15, 60 min after 2 g/kg glucose): 225 mg/dL
PPG 120 min, Day 15 ([4]; Day 15, 120 min after 2 g/kg glucose): 219 mg/dL
PPG 180 min, Day 15 ([4]; Day 15, 180 min after 2 g/kg glucose): 153 mg/dL
PPG 30 min, Day 30 ([4]; Day 30, 30 min after 2 g/kg glucose): 276 mg/dL
PPG 60 min, Day 30 ([4]; Day 30, 60 min after 2 g/kg glucose): 218 mg/dL
PPG 120 min, Day 30 ([4]; Day 30, 120 min after 2 g/kg glucose): 212 mg/dL
PPG 180 min, Day 30 ([4]; Day 30, 180 min after 2 g/kg glucose): 148 mg/dL
Glycosylated Hb ([5]; after 28 days, doses as in E92): 0.5 % of total Hb
HDL ([5]; after 28 days, doses as in E92): 25 mg/dL
LDL ([5]; after 28 days, doses as in E92): 92 mg/dL
TC ([5]; after 28 days, doses as in E92): 136.4 mg/dL
TG ([5]; after 28 days, doses as in E92): 97 mg/dL
VLDL ([5]; after 28 days, doses as in E92): 19.4 mg/dL
Body weight at biweekly interval, 0 ([5]; interval 0, Glibenclamide 2.5 mg/kg p.o., sample 2 40 mg/kg, product-2 100 mg/kg twice daily): 168 grams
Body weight at biweekly interval, 2 ([5]; interval 2, doses as in E92): 174 grams
Body weight at biweekly interval, 4 ([5]; interval 4, doses as in E92): 180 grams
Body weight at biweekly interval, 6 ([5]; interval 6, doses as in E92): 187 grams
Body weight at biweekly interval, 8 ([5]; interval 8, doses as in E92): 192 grams
Insulin ([5]; serum, after 28 days, doses as in E92): 1.58 ng/mL
